Laboratory results from patent US8952060B2, “Composition for preventing hair loss or for stimulating hair growth” (Amorepacific Corporation, priority 2009, dated 2015).

Columns and labels:
Format in all cases: in vivo
[1] = tested on: hair growth at depilated back portions of mice (C57BL/6); assay: Hair growth and hair weight after skin application in depilated mice
Description: According to one embodiment, sodium valproate is administered to subjects via external application to the skin and then tested for its effect for promoting hair growth. Seven week aged female mice (C57BL/6) are subjected to depilation at their back portions. Next, 7.2% sodium valproate is applied to the depilated back portions of mice of each test group twice per day. As a control, a mixed solution of propylene glycol/ethanol/water (5:3:2) is used. After the skin application, hair growth is observed at an interval of one week. After 6 weeks, hair weight after the depilation is measured.

[2] = tested on: hair growth at depilated back portions of mice (C57BL/6); assay: Hair growth and hair weight after oral administration in depilated mice; conditions: for hair growth as compared to the control (FIG. 2): 0.2 g/kg everyday for 5 weeks
Description: According to one embodiment, sodium valproate is administered orally to subjects and then tested for its effect for promoting hair growth. Seven week aged female mice (C57BL/6) are subjected to depilation at their back portions. Next, valproic acid is administered orally to mice of each test group everyday for 5 weeks. The control (mixed solution of distilled water, 1% methyl cellulose and 0.5% Tween 80™) and sodium valproate each are administered in a unit dose of 0.2 g/kg. After the administration, hair growth is observed at an interval of one week. After 5 weeks, hair weight after the depilation is measured.

[3] = tested on: hair growth at depilated back portions of mice (C57BL/6); assay: Hair growth after subcutaneous injection in depilated mice; conditions: 3% solution, subcutaneous injection 50 μL every 3-4 days, seven times
Description: According to one embodiment, sodium valproate (VPA) is administered to subjects via subcutaneous injection and then tested for its effect for promoting hair growth. Seven week aged female mice (C57BL/6) are subjected to depilation at their back portions. Next, 3% sodium valproate solution is administered via subcutaneous injection to the left side of each depilated back portion in a unit dose of 50 μL at an interval of 3-4 days seven times in total. Then, the degree of hair growth is observed 1, 16 and 30 days after starting the test. In the test of FIG. 1, sodium valproate is injected subcutaneously to the left portion (marked by a circle) of the back of each mouse.

Compound	hair growth, summary statement ([1]; transdermal administration (subcutaneous injection or skin application))	hair growth as compared to the control (FIG. 2) [2]	hair growth as compared to the control (FIG. 4) ([1]; 7.2% skin application twice per day)	hair weight (FIG. 5) ([1]; 7.2% skin application twice per day, after 6 weeks, control about 35 mg) [mg]	degree of hair growth as compared to the control (FIG. 1) ([3]; after 16 days, control = right side of back)	formation of new hair follicles (FIG. 1) ([3]; after 30 days)	hair weight (FIG. 3) ([2]; 0.2 g/kg everyday, after 5 weeks, control about 85 mg) [mg]
CCCC(CCC)C(=O)O [valproic acid, 2-propylpentanoic acid]	promotes hair growth	inhibits hair growth					
CCCC(CCC)C(=O)[O-].[Na+] [sodium valproate]		delays hair growth	promotes hair growth	≥ 80	hair growth is promoted	new hair follicles are formed	65
